Reference: patent publication US20230285310A1, “COMPOSITIONS FOR THE DELIVERY OF PAYLOAD MOLECULES TO AIRWAY EPITHELIUM” (ModernaTX, Inc., priority 2020, published 2023)
Where a name gives a salt, the structure may show the parent alone.

What was measured:
respiratory epithelium [1] = assay: LNP protein expression in rat after single dose of mRNA-LNP by intratracheal delivery (anti-V5 IHC); assay type: in vivo; details: intratracheal instillation, ~1.2 mpk, NPI-Luc mRNA, core with β-sitosterol for SA23
Method: Animals are anesthetized under isoflurane. The tongue is displaced and a small diameter cannula is inserted into the trachea (oropharyngeal route). The cannula tip is passed through the vocal chords, down the trachea so that the tip is very near, but not touching, the carina. Upon placement, 50 μL (mouse) or 200 μL (rat) of formulation is infused into the lungs. After 30 seconds upright, animals are released into a recovery cage and returned to their respective cages once recovered. Trachea, lungs and for the aerosol study nasal cavities, nasopharynx and larynx are collected for analysis. Lungs are inflated with 10% NBF fixative and trachea tied off to maintain inflation. Lungs are removed en bloc with attached trachea, bronchi and lobes. Whole lungs en bloc are fixed in 10% NBF at room temperature for at least 24 hours with a maximum of 48 hours and then removed from fixative and placed in PBS. Samples are immediately sent to be processed for paraffin 5-micron sections and H&E staining. IHC was performed on FFPE sections using the Leica Bond RX autostainer. […] Images were imaged at 20× magnification with the Panoramic 250 Flash III whole slide scanner. Image analysis was completed with Indica Labs HALO image analysis software. […] LNPs were prepared according to Example 2 using NPI-Luc as the mRNA construct. […] LNP protein expression in respiratory epithelium was evaluated according to sample collection and assay procedures A and B. The results are shown in Table 13b.

respiratory epithelium [2] = assay: LNP protein expression in mouse after single dose of mRNA-LNP by intratracheal delivery (anti-V5 IHC); assay type: in vivo; details: intratracheal instillation, ~0.7 mpk, NPI-Luc mRNA, core with β-sitosterol for SA23, SA31
Method: Animals are anesthetized under isoflurane. The tongue is displaced and a small diameter cannula is inserted into the trachea (oropharyngeal route). The cannula tip is passed through the vocal chords, down the trachea so that the tip is very near, but not touching, the carina. Upon placement, 50 μL (mouse) or 200 μL (rat) of formulation is infused into the lungs. After 30 seconds upright, animals are released into a recovery cage and returned to their respective cages once recovered. Trachea, lungs and for the aerosol study nasal cavities, nasopharynx and larynx are collected for analysis. Lungs are inflated with 10% NBF fixative and trachea tied off to maintain inflation. Lungs are removed en bloc with attached trachea, bronchi and lobes. Whole lungs en bloc are fixed in 10% NBF at room temperature for at least 24 hours with a maximum of 48 hours and then removed from fixative and placed in PBS. Samples are immediately sent to be processed for paraffin 5-micron sections and H&E staining. IHC was performed on FFPE sections using the Leica Bond RX autostainer. […] Images were imaged at 20× magnification with the Panoramic 250 Flash III whole slide scanner. Image analysis was completed with Indica Labs HALO image analysis software. […] LNPs were prepared according to Example 2 using NPI-Luc as the mRNA construct. LNPs were delivered to mice by intratracheal instillation for a dose of ˜0.7 mpk. LNP protein expression in respiratory epithelium was evaluated according to sample collection and assay procedures A and B. The results are shown in Table 13a.

HeLa cells = assay: Protein expression assay in HeLa cells (One-Glo luciferase, NPI-Luc mRNA); assay type: cell-based, human; details: 5 h, no serum, 4 wells, sterol amine post-added to LNP core Compound 18, DSPC, Cholesterol plus DMG-PEG 2K (SA3, SA11, SA24, SA26, SA39, SA32), plus Compound 428 (SA4, SA6, SA10, SA16), or plus β-sitosterol and DMG-PEG 2K (SA23, SA29, SA30, SA31)
Method: To evaluate protein expression In Vitro, HeLa cells from ATCC.org (ATCC CCL-2) are used. The cells are cultured in complete Minimum Essential Medium (MEM) and are plated in 96 well Cell Carrier Ultra plate with PDL coated surface (PerkinElmer) prior to running an experiment.
LNPs encapsulating NPI-Luc mRNA were dosed with MEM media in the absence of serum. LNP transfected cell were incubated for 5 h post LNP transfection, the cells were imaged live using Opera Phoenix spinning disk confocal microscope (PerkinElmer). Cells were detected using DAPI (405 nm channel), and image analysis was performed in Harmony 4.9, to quantify the number of cells. After imaging the cells were processed with One-Glo Luciferase assay (Promega) to quantify protein expression. Results were reported in relative luminescence units (RLU) normalized to cells counts.
LNPs were prepared according to Example 2 using NPI-Luc as the mRNA construct. NPI-Luc is a dual read reporter made by adding a 5xV5 tag and a C-myc nuclear localization sequence at the N-terminus of Firefly Luciferase to enhance the signal to noise ratio. Protein expression can be detected using OneGLo assays with luminescence readout or by immunofluorescence with anti-V5 antibodies. Protein expression was evaluated according to the procedure outlined in Example 7. The LNPs are dosed in 4 wells and the average response was reported. For the HeLa assay the luminescence read (RLU) were normalized to cell counts.

SMILES	Average protein expression per cell (RLU per cell) (HeLa cells)	further results
CC(C)CCC[C@@H](C)[C@H]1CC[C@H]2[C@@H]3CC=C4C[C@@H](OC(=O)NCCNC(=N)N)CC[C@]4(C)[C@H]3CC[C@]12C [SA23, (3S,8S,9S,10R,13R,14S,17R)-10,13-dimethyl-17-((R)-6-methylheptan-2-yl)-2,3,4,7,8,9,10,11,12,13,14,15,16,17-tetradecahydro-1H-cyclopenta[a]phenanthren-3-yl (2-guanidinoethyl)carbamate, hydrochloride salt]	868.8 RLU per cell	Average % V5 positive cells/total cells (respiratory epithelium [1]; Rat Bronchi (left and right lung)): 1.38%; Average % V5 positive cells/total cells (respiratory epithelium [1]; Rat Trachea): 0.83%; Average % V5 positive cells/total cells (respiratory epithelium [2]; Mouse Bronchi (left lung)): 0.98%; Average % V5 positive cells/total cells (respiratory epithelium [2]; Mouse Trachea): 0.8%
CC(C)CCC[C@@H](C)[C@H]1CC[C@H]2[C@@H]3CC=C4C[C@@H](OC(=O)CCC(=O)N(CCCN(C)C)CCCN(C)C)CC[C@]4(C)[C@H]3CC[C@]12C [SA24, (3S,8S,9S,10R,13R,14S,17R)-10,13-Dimethyl-17-((R)-6-methylheptan-2-yl)-2,3,4,7,8,9,10,11,12,13,14,15,16,17-tetradecahydro-1H-cyclopenta[a]phenanthren-3-yl 4-(bis(3-(dimethylamino)propyl)amino)-4-oxobutanoate dihydrochloride]	457.2 RLU per cell	–
CC(C)CCC[C@@H](C)[C@H]1CC[C@H]2[C@@H]3CC=C4C[C@@H](OC(=O)NCCN(C)CCO)CC[C@]4(C)[C@H]3CC[C@]12C [SA6, (3S,8S,9S,10R,13R,14S,17R)-10,13-dimethyl-17-((R)-6-methylheptan-2-yl)-2,3,4,7,8,9,10,11,12,13,14,15,16,17-tetradecahydro-1H-cyclopenta[a]phenanthren-3-yl (2-((2-hydroxyethyl)(methyl)amino)ethyl)carbamate]	196.2 RLU per cell	–
CC(C)CCC[C@@H](C)[C@H]1CC[C@H]2[C@@H]3CC=C4C[C@@H](OC(=O)NCCCNCCCCN)CC[C@]4(C)[C@H]3CC[C@]12C [SA30, (3S,8S,9S,10R,13R,14S,17R)-10,13-Dimethyl-17-((R)-6-methylheptan-2-yl)-2,3,4,7,8,9,10,11,12,13,14,15,16,17-tetradecahydro-1H-cyclopenta[a]phenanthren-3-yl (3-((4-aminobutyl)amino)propyl)carbamate dihydrochloride]	648.3 RLU per cell	–
CC(C)CCC[C@@H](C)[C@H]1CC[C@H]2[C@@H]3CC=C4C[C@@H](OC(=O)CC5CN6CCC5CC6)CC[C@]4(C)[C@H]3CC[C@]12C (stereo partly drawn) [SA32, (3S,8S,9S,10R,13R,14S,17R)-10,13-Dimethyl-17-((R)-6-methylheptan-2-yl)-2,3,4,7,8,9,10,11,12,13,14,15,16,17-tetradecahydro-1H-cyclopenta[a]phenanthren-3-yl 2-(quinuclidin-3-yl)acetate]	301.8 RLU per cell	–
CC[C@H](CC[C@@H](C)[C@H]1CC[C@H]2[C@@H]3CC=C4C[C@@H](OC(=O)NCCN(C)C)CC[C@]4(C)[C@H]3CC[C@]12C)C(C)C [SA10, (3S,8S,9S,10R,13R,14S,17R)-17-((2R,5R)-5-Ethyl-6-methylheptan-2-yl)-10,13-dimethyl-2,3,4,7,8,9,10,11,12,13,14,15,16,17-tetradecahydro-1H-cyclopenta[a]phenanthren-3-yl (2-(dimethylamino)ethyl)carbamate]	236.6 RLU per cell	–
CC(C)CCC[C@@H](C)[C@H]1CC[C@H]2[C@@H]3CC=C4C[C@@H](OC(=O)NCCNc5c(NCCCN(C)C)c(=O)c5=O)CC[C@]4(C)[C@H]3CC[C@]12C [SA26, (3S,8S,9S,10R,13R,14S,17R)-10,13-dimethyl-17-((R)-6-methylheptan-2-yl)-2,3,4,7,8,9,10,11,12,13,14,15,16,17-tetradecahydro-1H-cyclopenta[a]phenanthren-3-yl (2-((2-((3-(dimethylamino)propyl)amino)-3,4-dioxocyclobut-1-en-1-yl)amino)ethyl)carbamate, hydrochloride salt]	84.3 RLU per cell	–
CC(C)CCC[C@@H](C)[C@H]1CC[C@H]2[C@@H]3CC=C4C[C@@H](OC(=O)CCC(=O)N(CCCN)CCCCN)CC[C@]4(C)[C@H]3CC[C@]12C [SA31, (3S,8S,9S,10R,13R,14S,17R)-10,13-Dimethyl-17-((R)-6-methylheptan-2-yl)-2,3,4,7,8,9,10,11,12,13,14,15,16,17-tetradecahydro-1H-cyclopenta[a]phenanthren-3-yl 4-((4-aminobutyl)(3-aminopropyl)amino)-4-oxobutanoate dihydrochloride]	643.6 RLU per cell	Average % V5 positive cells/total cells (respiratory epithelium [2]; Mouse Bronchi (left lung)): 10.52%; Average % V5 positive cells/total cells (respiratory epithelium [2]; Mouse Trachea): 27.07%
CC(C)CCC[C@@H](C)[C@H]1CC[C@H]2[C@@H]3CC=C4C[C@@H](OC(=O)CCc5cnc[nH]5)CC[C@]4(C)[C@H]3CC[C@]12C [SA11, (3S,8S,9S,10R,13R,14S,17R)-10,13-dimethyl-17-((R)-6-methylheptan-2-yl)-2,3,4,7,8,9,10,11,12,13,14,15,16,17-tetradecahydro-1H-cyclopenta[a]phenanthren-3-yl 3-(1H-imidazol-5-yl)propanoate, hydrochloride salt]	5.3 RLU per cell	–
CC(C)CCC[C@@H](C)[C@H]1CC[C@H]2[C@@H]3CC=C4C[C@@H](SSCCC(=O)N(CCCN)CCCCNCCCN)CC[C@]4(C)[C@H]3CC[C@]12C [SA39, N-(3-Aminopropyl)-N-(4-((3-aminopropyl)amino)butyl)-3-(((3S,8S,9S,10R,13R,14S,17R)-10,13-dimethyl-17-((R)-6-methylheptan-2-yl)-2,3,4,7,8,9,10,11,12,13,14,15,16,17-tetradecahydro-1H-cyclopenta[a]phenanthren-3-yl)disulfaneyl)propanamide trihydrochloride]	201.9 RLU per cell	–
CC(C)CCC[C@@H](C)[C@H]1CC[C@H]2[C@@H]3CC=C4C[C@@H](OC(=O)N(CCCN)CCCCN)CC[C@]4(C)[C@H]3CC[C@]12C [SA29, (3S,8S,9S,10R,13R,14S,17R)-10,13-Dimethyl-17-((R)-6-methylheptan-2-yl)-2,3,4,7,8,9,10,11,12,13,14,15,16,17-tetradecahydro-1H-cyclopenta[a]phenanthren-3-yl (4-aminobutyl)(3-aminopropyl)carbamate dihydrochloride]	550.3 RLU per cell	–
